The GI50 is the concentration that inhibits growth by half. Broadly, the IC50 is the concentration that gives 50% inhibition.

Like-named read-outs stand apart in the source and are kept apart here.

The subject of assay [1] is A549 lung cancer cell line. Description: Cell growth inhibition, Sulforhodamine B (SRB) assay. Format: cell-based. To be noted: Homo sapiens, A549, 120 h, read-out: Cell Line GI50 Range A549. The method, then: (§1) Aliquots (20 μl) from each concentration were overlaid to 80 μl of the pre-seeded cells in the 96-plates to make final concentrations of 10 nM to 50 μM. The cells were cultured for 5 days before the Sulforhodamine B (SRB) assay was performed to determine the compound's cell growth inhibition activity.
(§2) Sulforhodamine B (Sigma, Canada) is a water-soluble dye that binds to the basic amino acids of cellular proteins. Thus, colorimetric measurement of the bound dye provides an estimate of the total protein mass that is related to the cell number. The cells are fixed in situ by gently aspirating off the culture media and adding 50 μl ice cold 10% Trichloroacetic Acid (TCA) per well and incubated at 4° C. for 30-60 min. The plates are washed with water five times and allowed to air dry for 5 min. Addition of 50 μl 0.4% (w/v) SRB solution in 1% (v/v) acetic acid to each well and incubatation for […] at RT completes the staining reaction. Following staining, plates are washed four times with 1% acetic acid to remove unbound dye and then allowed to air dry for 5 min. […] Absorbance is read at 570 nm.
(§3) The percentage (%) of relative growth inhibition was calculated by comparing to DMSO-treated only cells (100%). GI50's were determined for compounds with cytotoxic activity. The GI50 was calculated using GraphPad PRISM software (GraphPad Software, Inc., USA).
A general note: In SRB staining, fixed cells bind dye roughly in proportion to their protein.

Assay [2] relates to MCF-7 luminal breast cancer cell line. The assay is described as above. Type of assay: cell-based. The following applies: Homo sapiens, MCF7, 120 h, read-out: Cell Line GI50 Range MCF-7. The method, then: as §1, §2, §3
The subject of assay [3] is SW620 colon cancer cell line. Described as above. Format: cell-based. The following applies: Homo sapiens, SW-620, 120 h, read-out: Cell Line GI50 Range SW620. The method, then:
as §1, §2, §3

Assay [4] deals with human mammary epithelial primary cells (HMEC). Described as above. Format: cell-based. To be noted: 120 h, read-out: Cell Line GI50 Range HMEC. The method, then:
as §1, §2, §3

Assay [5] concerns HCC1954 basal breast cancer cell line. Described as above. Type of assay: cell-based. To be noted: Homo sapiens. The method, then:
as §1, §2, §3
The SRB assay described above was used to assay test compounds against the extended panel (Table 6).

The target of assay [6] is p38gamma (Homo sapiens, UniProt P53778). The experiment in a line: Kinase selectivity assay (CEREP, HTRF). The following applies: read-out: % Inhibition at 10 μM Concentration. Type of assay: biochemical. The method, then: (§4) The inhibitory activity of selected compounds was evaluated against a panel of 45 different kinase enzymes by CEREP, France. The assays were performed using standard HTRF assay methods as documented by CEREP against the human orthologues of Abl kinase, Akt1/PKBa, AMPKa, BMX kinase (Etk), Brk, CaMK2a, CaMK4, CDC2/CDK1 (cycB), CHK1, CHK2, c-Met kinase, CSK, EphB4 kinase, ERK1, ERK2 (P42mapk), FGFR2 kinase, FGFR4 kinase, FLT-1 kinase (VEGFR1), FLT-3 kinase, Fyn kinase, IGF1R kinase, IRK (InsR), JNK 2, KDR kinase (VEGFR2), Lck kinase, Lyn kinase, MAPKAPK2, MEK1/MAP2K1, p38a kinase, p38d kinase, p38g kinase, PDGFRb kinase, PDK1, PKA, PKCa, PKCb1, PKCb2, PKCg, Ret kinase, ROCK2, RSK2, Src kinase, Syk, and TRKA. The % Inhibition was determined by the formula; % Inhibition=100×(1−(experimental value−background value)/(high activity control−background value)).
Background: In TR-FRET formats the signal depends on donor and acceptor labels being close together.

Assay [7] concerns the target PKCgamma (Homo sapiens, UniProt P05129). The experiment in a line: Kinase selectivity assay (CEREP, HTRF). Format: biochemical. To be noted: read-out: % Inhibition at 10 μM Concentration. The method, then:
as §4

Assay [8] deals with PKCalpha (Homo sapiens, UniProt P17252). The experiment in a line: Kinase selectivity assay (CEREP, HTRF). Type of assay: biochemical. The following applies: read-out: % Inhibition at 10 μM Concentration. The method, then:
as §4

Assay [9] concerns the target p38delta (Homo sapiens, UniProt O15264). The experiment in a line: Kinase selectivity assay (CEREP, HTRF). To be noted: read-out: % Inhibition at 10 μM Concentration. Type of assay: biochemical. The method, then: as §4
The target of assay [10] is Akt1/PKBalpha (Homo sapiens, UniProt P31749). Description: Kinase selectivity assay (CEREP, HTRF). Format: biochemical. To be noted: read-out: % Inhibition at 10 μM Concentration. The method, then: as §4
The target of assay [11] is CaMK2alpha (Homo sapiens, UniProt Q9UQM7). The experiment in a line: Kinase selectivity assay (CEREP, HTRF). Format: biochemical. To be noted: read-out: % Inhibition at 10 μM Concentration. The method, then: as §4
Assay [12] has as its target PKCbeta 1 (Homo sapiens, UniProt P05771). Description: Kinase selectivity assay (CEREP, HTRF). Type of assay: biochemical. The following applies: read-out: % Inhibition at 10 μM Concentration. The method, then: as §4
In assay [13] the target is Fyn (Homo sapiens, UniProt P06241). The experiment in a line: Kinase selectivity assay (CEREP, HTRF). Format: biochemical. The following applies: read-out: % Inhibition at 10 μM Concentration. The method, then:
as §4

Assay [14] concerns the target IGF1R (Homo sapiens, UniProt P08069). The experiment in a line: Kinase selectivity assay (CEREP, HTRF). Type of assay: biochemical. To be noted: read-out: % Inhibition at 10 μM Concentration. The method, then:
as §4

Assay [15] concerns the target BMX (Etk) (Homo sapiens, UniProt P51813). Description: Kinase selectivity assay (CEREP, HTRF). Type of assay: biochemical. To be noted: read-out: % Inhibition at 10 μM Concentration. The method, then:
as §4

For assay [16], the target named is T1, Aurora B (Homo sapiens, UniProt Q96GD4).
T1 construct: purchased Invitrogen PV3970
Description: Aurora B inhibition assay (Z-Lyte). Type of assay: biochemical. The following applies: read-out: IC50 Ranges Aurura B. The method, then: Aurora B inhibition was determined using the Z-Lyte assay kit from Invitrogen. […] The % inhibition values were determined according to the manufacturer's directions and IC50 values were obtained using a non-linear 4 point logistic curve fit (XLfit4, IDBS).

For assay [17], the target named is T2, Aurora A (Homo sapiens, UniProt O14965).
T2 construct: purchased Invitrogen PV3612
T2 sequence (O14965 1-403): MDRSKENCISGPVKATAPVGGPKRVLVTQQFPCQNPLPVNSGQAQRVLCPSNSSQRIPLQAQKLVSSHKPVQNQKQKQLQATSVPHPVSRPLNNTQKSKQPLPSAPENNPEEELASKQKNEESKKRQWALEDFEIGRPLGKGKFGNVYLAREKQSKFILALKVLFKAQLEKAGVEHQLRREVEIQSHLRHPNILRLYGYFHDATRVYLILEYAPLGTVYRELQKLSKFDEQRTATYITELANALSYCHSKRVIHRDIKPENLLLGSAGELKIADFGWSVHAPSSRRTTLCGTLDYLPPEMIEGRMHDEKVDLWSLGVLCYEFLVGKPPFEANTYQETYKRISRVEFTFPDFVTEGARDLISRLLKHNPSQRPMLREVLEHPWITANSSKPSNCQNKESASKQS
The experiment in a line: Aurora A inhibition assay (Z-Lyte). Format: biochemical. The method, then: Aurora A inhibition was determined using the Z-Lyte assay kit from Invitrogen. The assay was performed using the recommended manufacturer's instructions with 20 nM ATP and 12 nM Aurora A (Invitrogen cat #PV3612). The % inhibition values were determined according to the manufacturer's directions and IC50 values were obtained using a non-linear 4 point logistic curve fit (XLfit4, IDBS)

The mark [18] stands for this setting: HCC1954, 120 h, read-out: Cell Line GI50 Range HCC1954.

PKCbeta 1, sequence (P05771 whole entry): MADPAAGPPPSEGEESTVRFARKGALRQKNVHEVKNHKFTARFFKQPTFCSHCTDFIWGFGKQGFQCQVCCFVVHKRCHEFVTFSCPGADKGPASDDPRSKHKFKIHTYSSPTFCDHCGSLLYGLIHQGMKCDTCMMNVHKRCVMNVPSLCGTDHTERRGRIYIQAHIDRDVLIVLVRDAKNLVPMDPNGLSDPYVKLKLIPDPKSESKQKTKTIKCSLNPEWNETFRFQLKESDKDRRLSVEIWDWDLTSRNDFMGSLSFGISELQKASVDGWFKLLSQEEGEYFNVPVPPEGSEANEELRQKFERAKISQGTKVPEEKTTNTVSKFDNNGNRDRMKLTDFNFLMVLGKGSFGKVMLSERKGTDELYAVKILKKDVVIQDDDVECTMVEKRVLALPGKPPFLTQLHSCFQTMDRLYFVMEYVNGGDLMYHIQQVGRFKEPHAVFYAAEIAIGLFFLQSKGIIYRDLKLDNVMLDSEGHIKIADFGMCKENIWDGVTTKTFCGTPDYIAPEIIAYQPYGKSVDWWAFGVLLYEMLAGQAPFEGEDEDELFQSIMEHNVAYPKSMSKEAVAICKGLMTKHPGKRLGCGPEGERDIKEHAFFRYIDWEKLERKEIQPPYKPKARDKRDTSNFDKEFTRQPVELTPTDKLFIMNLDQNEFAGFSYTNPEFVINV
IGF1R, sequence (P08069 31-1367): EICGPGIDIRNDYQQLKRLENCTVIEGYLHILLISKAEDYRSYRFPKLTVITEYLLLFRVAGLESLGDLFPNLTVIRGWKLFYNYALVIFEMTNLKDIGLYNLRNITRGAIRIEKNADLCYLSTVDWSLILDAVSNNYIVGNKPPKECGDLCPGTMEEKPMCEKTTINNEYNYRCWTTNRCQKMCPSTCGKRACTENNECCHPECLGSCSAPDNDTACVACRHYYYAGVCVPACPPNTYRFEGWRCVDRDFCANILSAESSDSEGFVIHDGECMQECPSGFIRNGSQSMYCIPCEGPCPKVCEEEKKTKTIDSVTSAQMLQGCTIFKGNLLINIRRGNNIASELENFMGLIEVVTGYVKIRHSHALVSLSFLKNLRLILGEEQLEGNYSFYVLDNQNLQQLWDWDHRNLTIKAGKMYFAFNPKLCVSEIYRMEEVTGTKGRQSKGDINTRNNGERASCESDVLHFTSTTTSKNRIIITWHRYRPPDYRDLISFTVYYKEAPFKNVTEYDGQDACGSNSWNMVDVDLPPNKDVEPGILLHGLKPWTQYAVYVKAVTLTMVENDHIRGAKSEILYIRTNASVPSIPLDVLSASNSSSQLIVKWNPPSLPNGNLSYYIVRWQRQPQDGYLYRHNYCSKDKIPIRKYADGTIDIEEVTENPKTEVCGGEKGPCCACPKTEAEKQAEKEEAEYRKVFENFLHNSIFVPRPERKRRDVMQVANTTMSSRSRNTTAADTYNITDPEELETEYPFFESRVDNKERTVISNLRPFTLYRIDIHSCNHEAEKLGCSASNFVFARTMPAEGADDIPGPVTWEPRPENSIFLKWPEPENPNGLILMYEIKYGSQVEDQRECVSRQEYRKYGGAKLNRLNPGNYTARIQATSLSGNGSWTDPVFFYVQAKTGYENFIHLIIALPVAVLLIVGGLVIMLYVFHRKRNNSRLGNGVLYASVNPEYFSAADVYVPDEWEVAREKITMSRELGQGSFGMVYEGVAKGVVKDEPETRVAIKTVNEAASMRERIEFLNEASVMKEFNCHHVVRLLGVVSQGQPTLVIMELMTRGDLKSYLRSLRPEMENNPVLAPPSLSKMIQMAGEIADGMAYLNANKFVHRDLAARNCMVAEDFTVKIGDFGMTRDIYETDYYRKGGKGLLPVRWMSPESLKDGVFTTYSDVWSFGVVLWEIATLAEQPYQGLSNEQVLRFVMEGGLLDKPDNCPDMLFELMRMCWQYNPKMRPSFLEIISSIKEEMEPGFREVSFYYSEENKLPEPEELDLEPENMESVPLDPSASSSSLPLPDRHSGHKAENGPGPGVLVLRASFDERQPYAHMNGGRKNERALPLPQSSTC
T1 sequence (Q96GD4 whole entry): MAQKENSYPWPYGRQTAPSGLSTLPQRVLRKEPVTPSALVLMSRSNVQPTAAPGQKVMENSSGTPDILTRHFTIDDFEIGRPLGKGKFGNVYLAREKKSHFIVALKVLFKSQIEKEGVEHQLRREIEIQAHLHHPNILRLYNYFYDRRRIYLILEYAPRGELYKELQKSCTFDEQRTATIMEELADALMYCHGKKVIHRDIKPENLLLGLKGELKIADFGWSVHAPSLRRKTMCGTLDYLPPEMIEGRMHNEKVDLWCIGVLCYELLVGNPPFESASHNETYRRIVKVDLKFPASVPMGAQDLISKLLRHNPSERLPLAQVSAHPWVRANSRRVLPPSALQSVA
BMX (Etk), sequence (P51813 whole entry): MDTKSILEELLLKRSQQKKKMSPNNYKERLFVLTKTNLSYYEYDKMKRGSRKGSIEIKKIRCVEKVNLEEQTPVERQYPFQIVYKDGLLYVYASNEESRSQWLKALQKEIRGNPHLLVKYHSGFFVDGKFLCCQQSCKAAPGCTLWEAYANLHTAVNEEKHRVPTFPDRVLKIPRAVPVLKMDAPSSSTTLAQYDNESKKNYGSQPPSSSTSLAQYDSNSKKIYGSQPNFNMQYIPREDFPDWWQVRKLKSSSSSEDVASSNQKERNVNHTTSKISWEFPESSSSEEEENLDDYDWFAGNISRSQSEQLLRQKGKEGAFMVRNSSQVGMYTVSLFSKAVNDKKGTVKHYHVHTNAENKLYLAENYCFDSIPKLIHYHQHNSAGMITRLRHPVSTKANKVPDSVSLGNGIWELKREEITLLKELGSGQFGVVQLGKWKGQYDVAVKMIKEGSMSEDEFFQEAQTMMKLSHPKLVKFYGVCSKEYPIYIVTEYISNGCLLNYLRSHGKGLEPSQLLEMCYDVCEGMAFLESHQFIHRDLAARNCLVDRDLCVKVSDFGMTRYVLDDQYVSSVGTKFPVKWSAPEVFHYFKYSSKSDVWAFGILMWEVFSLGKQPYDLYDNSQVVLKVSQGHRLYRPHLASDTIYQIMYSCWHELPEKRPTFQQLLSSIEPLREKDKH
Akt1/PKBalpha, sequence (P31749 whole entry): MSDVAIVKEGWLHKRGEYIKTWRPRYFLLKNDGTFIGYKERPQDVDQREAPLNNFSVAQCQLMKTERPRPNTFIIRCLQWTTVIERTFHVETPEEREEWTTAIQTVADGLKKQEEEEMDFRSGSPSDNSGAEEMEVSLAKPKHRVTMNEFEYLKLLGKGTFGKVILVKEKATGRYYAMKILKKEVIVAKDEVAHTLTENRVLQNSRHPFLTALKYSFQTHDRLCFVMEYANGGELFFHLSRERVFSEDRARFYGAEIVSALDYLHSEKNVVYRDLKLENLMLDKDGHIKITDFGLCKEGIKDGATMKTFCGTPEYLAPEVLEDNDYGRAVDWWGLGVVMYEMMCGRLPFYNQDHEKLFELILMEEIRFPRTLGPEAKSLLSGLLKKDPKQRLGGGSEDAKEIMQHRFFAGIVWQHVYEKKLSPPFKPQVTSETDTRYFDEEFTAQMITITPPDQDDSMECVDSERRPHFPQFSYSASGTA

Regarding `CN(C)Cc1ccc(/C=C/c2n[nH]c3cc([C@H]4C[C@@]45C(=O)Nc4ccccc45)ccc23)cc1` (racemic) [Compound 35], the concentration for 50% growth inhibition (GI50) in assay [1] was less than 5 µM; in assay [2], less than 5 µM; in [3], less than 5 µM; in assay [4] it was 5 to 20 µM; in assay [5] (setting [18]), less than 5 µM. Moreover, the inhibition at 10 µM in [6] was -5%; in assay [7], 10%; in assay [8], 6%; in assay [9], 5%; in assay [10], -4%; in [11], 9%. Moreover, the inhibition at 10 µM in assay [12] (PKCbeta 1, 10 μM) was -2%; in assay [13] it was 55%; in assay [14] (IGF1R, 10 μM), 0%; in assay [15] it was 39%.

On to `COc1ccc2c(c1)/C(=C\c1ccc3c(/C=C/c4ccc(N5CCN(C)CC5)nc4)n[nH]c3c1)C(=O)N2` [Compound 3], for which the IC50 in assay [16] and in [17] (read-out: IC50 Ranges Aurora A) was less than 5 µM each time. Besides, in assay [5] (HCC1954, read-out: GI50 Range HCC1954), the GI50 is less than 5 µM. Moreover, the inhibition at 10 µM in assay [6] was 12%; in assay [7], 3%; in assay [8], 7%; in [9] it was -2%; in assay [10], -5%; in assay [11] it was 2%. Moreover, the inhibition at 10 µM was found to be 1% in [12] (PKCbeta 1, 10 μM); 4% in assay [13]; 5% in assay [14] (IGF1R, 10 μM); 0% in assay [15].

For `COc1ccc2c(c1)[C@@]1(C[C@@H]1c1ccc3c(-c4ccc(N5CCN(C)CC5)nc4)n[nH]c3c1)C(=O)N2` (racemic) [Compound 2], the 50% inhibitory concentration (IC50) in assay [16] was less than 5 µM. Besides, the GI50 was less than 5 µM in assay [1]; less than 5 µM in assay [2]; less than 5 µM in assay [3]; 20 to 50 µM in assay [4]; less than 5 µM in assay [5] (setting [18]). Besides, the inhibition at 10 µM in assay [17] (dose of 10 μM, read-out: Aurora A relative inhibition percentage) is less than 50%; in [12], -2%; in assay [14] it was -3%.

(Values after patent publication US8933070B2, “Methods of targeting PTEN mutant diseases and compositions therefor” (University Health Network, priority 2010, dated 2015).)
